Measured values taken from patent publication US7981883B2, “Substituted spiro-compounds and the use thereof for producing medicaments” (Gruenenthal GmbH, priority 2005, dated 2011).

Assays:
Assay type in all cases: cell-based
VR1 (human) [1] = biological target: T1, VR1 (human) (Homo sapiens, UniProt Q8NER1); test: Functional FLIPR Ca2+ inflow assay on VR1 (human), CHO K1 cells stably transfected with the VR1 gene; conditions: test compound 10 μM; for inhibition at 10 µM / activation at 10 µM: CHO-K1; for inhibition at 10 µM / VR1 (human) (% inhibition compared to 10 μM CP): then 100 nM capsaicin after 5 min, relative to maximum inhibition with 10 μM capsaicin; for inhibition at 10 µM: read-out: VR1 (human) (% inhibition compared to 10 μM CP); for activation at 10 µM / VR1 (human) (% stimulation compared to 10 μM CP): Ca2+ signal relative to 10 μM capsaicin (CP); for activation at 10 µM: read-out: VR1 (human) (% stimulation compared to 10 μM CP)
T1 construct: expressed in transfected cells; host or cells: CHO K1 cells (ECACC)
Text: II. Functional Testing Carried Out on the Vanilloid Receptor (VR1)
The agonistic or antagonistic effect of the substances to be tested can also be determined on the vanilloid receptor (VR1) using the following assay. According to this assay, the Ca^2+ inflow is quantified through the channel using a Ca^2+-sensitive dye (type Fluo-4, Molecular Probes Europe BV, Leiden, Netherlands) in a fluorescent imaging plate reader (FLIPR, Molecular Devices, Sunnyvale, USA).
Chinese hamster ovary cells (CHO K1 cells, European Collection of Cell Cultures (ECACC) United Kingdom) were stably transfected with the VR1 gene. For functional testing, these cells were plated out on poly-D-lysine-coated black 96 well plates having a clear base (BD Biosciences, Heidelberg, Germany) at a density of 25,000 cells/well. The cells were incubated overnight at 37° C. and 5% CO2 in a culture medium (Ham's F12 nutrient mixture, 10% by volume of FCS (foetal calf serum), 18 μg/ml L-proline). The next day the cells were incubated with Fluo-4 (Fluo-4 2 μM, 0.01% by volume of Pluronic F127, Molecular Probes in HBSS (Hank's buffered saline solution), Gibco Invitrogen GmbH, Karlsruhe, Germany) for 30 minutes at 37° C. Subsequently, the plates were washed three times with HBSS buffer and after further incubation for 15 minutes at room temperature used for Ca^2+ measurement in a FLIPR assay. The Ca^2+-dependent fluorescence was measured before and after the addition of the substances to be tested (λex wavelength=488 nm, λem=540 nm). Quantification was carried out by measuring the highest fluorescence intensity (FC, Fluorescence Counts) over time.
The FLIPR protocol consists of 2 substance additions. First the compounds to be tested (10 μM) were pipetted onto the cells and the Ca^2+ inflow was compared with the control (capsaicin 10 μM) (% activation based on the Ca^2+ signal after the addition of 10 μM capsaicin). After 5 minutes' incubation, 100 nM of capsaicin were administered and the Ca^2+ inflow was also determined.
Desensitising agonists and antagonists led to suppression of the Ca^2+ inflow. The % inhibition was calculated compared to the maximum achievable inhibition with 10 μM of capsaicin.

VR1 (human) [2] = biological target: T1, VR1 (human); test: as above; conditions: against capsaicin (CAP)
VR1 (rat) [3] = biological target: T2, VR1 (rat) (Rattus norvegicus, UniProt O35433); test: Functional FLIPR Ca2+ inflow assay on rat-species vanilloid receptor 1 in rat dorsal root ganglia cells; conditions: test compound 10 μM; for inhibition at 10 µM / VR1 (rat) (% inhibition compared to 10 μM CP): then 100 nM capsaicin after 5 min, relative to maximum inhibition with 10 μM capsaicin; for inhibition at 10 µM: read-out: VR1 (rat) (% inhibition compared to 10 μM CP); for activation at 10 µM / VR1 (rat) (% stimulation compared to 10 μM CP): Ca2+ signal relative to 10 μM capsaicin (CP); for activation at 10 µM: read-out: VR1 (rat) (% stimulation compared to 10 μM CP)
T2 construct: from tissue; host or cells: primary cells dissociated from rat dorsal root ganglia
Text: I. Functional Testing Carried Out on the Vanilloid Receptor 1 (VR1/TRPV1 Receptor)
The agonistic or antagonistic effect of the substances to be tested can be determined on the rat-species vanilloid receptor 1 (VR1/TRPV1) using the following assay. According to this assay, the Ca^2+ inflow is quantified through the receptor channel using a Ca^2+-sensitive dye (type Fluo-4, Molecular Probes Europe BV, Leiden, Netherlands) in a fluorescent imaging plate reader (FLIPR, Molecular Devices, Sunnyvale, USA).
Complete medium: 50 mL HAMS F12 nutrient mixture (Gibco Invitrogen GmbH, Karlsruhe, Germany) with
10% by volume of FCS (foetal calf serum, Gibco Invitrogen GmbH, Karlsruhe, Germany, […]);
2 mM L-glutamine (Sigma, Munich, Germany);
1% by weight of AA solution (antibiotic/antimyotic solution, PAA, Pasching, Austria) and 25 ng/ml NGF medium (2.5 S, Gibco Invitrogen GmbH, Karlsruhe, Germany)
Cell culture plate: Poly-D-lysine-coated, black 96 well plates having a clear base (96 well black/clear plate, BD Biosciences, Heidelberg, Germany) were additionally coated with laminin (Gibco Invitrogen GmbH, Karlsruhe, Germany), the laminin being diluted with PBS (Ca—Mg-free PBS, Gibco Invitrogen GmbH, Karlsruhe, Germany) to a concentration of 100 μg/mL. Aliquots having a laminin concentration of 100 μg/mL were removed and stored at −20° C. The aliquots were diluted with PBS in a ratio of 1:10 to 10 μg/mL laminin and in each case 50 μL of the solution were pipetted into a recess in the cell culture plate. The cell culture plates were incubated for at least two hours at 37° C., the excess solution was removed by suction-filtration and the recesses were each washed twice with PBS. The coated cell culture plates were stored with excess PBS which was not removed until just before the feeding of the cells.
The vertebral column was removed from decapitated rats and placed immediately into cold HBSS buffer (Hank's buffered saline solution, Gibco Invitrogen GmbH, Karlsruhe, Germany), i.e. buffer located in an ice bath, mixed with 1% by volume (percent by volume) of an AA solution (antibiotic/antimyotic solution, PAA, Pasching, Austria). The vertebral column was cut longitudinally and removed together with fasciae from the vertebral canal. Subsequently, the dorsal root ganglia (DRG) were removed and again stored in cold HBSS buffer mixed with 1% by volume of an AA solution. The DRG, from which all blood remnants and spinal nerves had been removed, were transferred in each case to 500 μL of cold type 2 collagenase (PAA, Pasching, Austria) and incubated for 35 minutes at 37° C. After the addition of 2.5% by volume of trypsin (PAA, Pasching, Austria), incubation was continued for 10 minutes at 37° C. After complete incubation, the enzyme solution was carefully pipetted off and 500 μL of complete medium were added to each of the remaining DRG. The DRG were in each case suspended several times, drawn through cannulae No. 1, No. 12 and No. 16 using a syringe and transferred to a 50 mL Falcon tube which was filled up to 15 mL with complete medium. The contents of each Falcon tube was in each case filtered through a 70 μm Falcon filter element and centrifuged for 10 minutes at 1,200 rpm and room temperature. The resulting pellet was in each case taken up in 250 μL of complete medium and the number of cells determined.
The number of cells in the suspension was set to 3×10^5 per mL and 150 μL of this suspension were in each case introduced into a recess in the cell culture plates coated as described hereinbefore. In the incubator the plates were left for two to three days at 37° C., 5% by volume of CO2 and 95% relative humidity. […]

VR1 (rat) [4] = biological target: T2, VR1 (rat); test: as above; conditions: against capsaicin (CAP)

T1 sequence (Q8NER1 whole entry): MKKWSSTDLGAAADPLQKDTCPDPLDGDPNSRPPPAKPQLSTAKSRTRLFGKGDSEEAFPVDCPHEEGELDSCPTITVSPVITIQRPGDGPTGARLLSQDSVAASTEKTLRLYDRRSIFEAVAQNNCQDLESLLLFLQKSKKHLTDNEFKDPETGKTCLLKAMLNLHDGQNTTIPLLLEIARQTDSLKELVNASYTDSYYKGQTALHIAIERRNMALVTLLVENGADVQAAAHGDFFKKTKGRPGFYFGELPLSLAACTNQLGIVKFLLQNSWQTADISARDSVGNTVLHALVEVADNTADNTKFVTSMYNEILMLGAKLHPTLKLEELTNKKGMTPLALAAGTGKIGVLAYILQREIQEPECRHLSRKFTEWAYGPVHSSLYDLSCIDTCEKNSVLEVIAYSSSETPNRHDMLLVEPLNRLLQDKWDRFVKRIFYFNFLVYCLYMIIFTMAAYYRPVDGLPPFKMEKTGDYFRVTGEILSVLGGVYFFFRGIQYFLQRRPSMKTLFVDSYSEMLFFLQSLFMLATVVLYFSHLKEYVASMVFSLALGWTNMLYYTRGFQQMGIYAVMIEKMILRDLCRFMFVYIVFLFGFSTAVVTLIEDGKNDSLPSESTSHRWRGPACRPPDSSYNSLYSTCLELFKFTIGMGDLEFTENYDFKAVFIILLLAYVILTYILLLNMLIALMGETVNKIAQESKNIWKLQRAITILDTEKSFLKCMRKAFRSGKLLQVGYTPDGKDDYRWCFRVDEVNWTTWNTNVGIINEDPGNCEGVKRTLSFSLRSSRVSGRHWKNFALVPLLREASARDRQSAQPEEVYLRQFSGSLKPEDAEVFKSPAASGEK
T2 sequence (O35433 whole entry): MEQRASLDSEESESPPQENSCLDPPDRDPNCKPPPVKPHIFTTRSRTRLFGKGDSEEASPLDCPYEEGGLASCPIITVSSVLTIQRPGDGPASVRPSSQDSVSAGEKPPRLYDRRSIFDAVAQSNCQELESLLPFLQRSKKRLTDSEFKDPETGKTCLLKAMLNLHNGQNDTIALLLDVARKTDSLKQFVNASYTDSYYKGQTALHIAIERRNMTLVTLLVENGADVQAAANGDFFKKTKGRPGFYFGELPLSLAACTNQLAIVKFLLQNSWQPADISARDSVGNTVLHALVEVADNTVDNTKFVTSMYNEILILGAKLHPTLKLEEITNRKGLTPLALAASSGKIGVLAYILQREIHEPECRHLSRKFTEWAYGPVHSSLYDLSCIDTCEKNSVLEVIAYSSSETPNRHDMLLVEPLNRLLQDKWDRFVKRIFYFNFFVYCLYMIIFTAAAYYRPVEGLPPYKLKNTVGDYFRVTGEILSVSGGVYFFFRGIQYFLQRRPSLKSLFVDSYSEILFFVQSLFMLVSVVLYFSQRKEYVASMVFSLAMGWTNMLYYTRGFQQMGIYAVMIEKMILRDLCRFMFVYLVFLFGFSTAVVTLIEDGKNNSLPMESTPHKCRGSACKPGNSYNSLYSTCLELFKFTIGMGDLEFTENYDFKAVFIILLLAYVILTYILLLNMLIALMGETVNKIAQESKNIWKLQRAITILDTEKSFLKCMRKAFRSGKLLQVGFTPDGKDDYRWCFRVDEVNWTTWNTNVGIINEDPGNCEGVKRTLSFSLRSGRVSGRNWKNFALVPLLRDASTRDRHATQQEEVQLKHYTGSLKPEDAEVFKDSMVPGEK

Molecule	inhibition at 10 µM (VR1 (human) [1])	activation at 10 µM (VR1 (human) [1])	IC50 (VR1 (human) [2])	Ki (VR1 (human) [2])	inhibition at 10 µM (VR1 (rat) [3])	activation at 10 µM (VR1 (rat) [3])	IC50 (VR1 (rat) [4])	Ki (VR1 (rat) [4])	VR1 (human) (% inhibition compared to 10 μM CP) (VR1 (human) [1])	VR1 (human) (% stimulation compared to 10 μM CP) (VR1 (human) [1])	VR1 (rat) (% inhibition compared to 10 μM CP) (VR1 (rat) [3])	VR1 (rat) (% stimulation compared to 10 μM CP) (VR1 (rat) [3])
CC(C)(C)[C@H]1CC[C@@]2(CC1)CC(C(=O)NCc1ccc(NS(C)(=O)=O)c(F)c1)=NO2 [Example 7, cis-8-tert-butyl-1-oxa-2-azaspiro[4.5]dec-2-ene-3-carboxylic acid-3-fluoro-4-methanesulphonylaminobenzylamide]	92.8%	-0.05%	1.24 µM	1.99 µM	105%	0.23%	0.126 µM	0.0797 µM	–	–	–	–
CC(C)(C)[C@H]1CC[C@@]2(CC1)CC(C(=O)N1CCN(c3ncccc3C(F)(F)F)CC1)=NO2 [Example 9, cis-(8-tert-butyl-1-oxa-2-azaspiro[4.5]dec-2-en-3-yl)-[4-(3-trifluoromethylpyridin-2-yl)piperazin-1-yl]methanone]	–	–	3.34 µM	4.86 µM	–	–	1.55 µM	0.894 µM	61.74%	0.41%	91.46%	1.05%
CC(C)(C)C1CCC2(CC1)CC(C(=O)NCc1ccncc1)=NO2 (stereo not drawn) [Example 23, trans-8-tert-butyl-1-oxa-2-azaspiro[4.5]dec-2-ene-3-carboxylic acid (pyridin-4-ylmethyl)amide]	–	–	–	–	–	–	–	–	54.21%	23.79%	69.46%	55.21%
CC(C)(C)[C@H]1CC[C@@]2(CC1)CC(C(=O)NCc1ccncc1)=NO2 [Example 24, cis-8-tert-butyl-1-oxa-2-azaspiro[4.5]dec-2-ene-3-carboxylic acid (pyridin-4-ylmethyl)amide]	–	–	–	–	–	–	–	–	83.01%	91.72%	97.79%	87.96%
CC(C)(C)[C@H]1CC[C@]2(CC1)CC(C(=O)NCc1ccc(NS(C)(=O)=O)c(F)c1)=NO2 [Example 25, trans-8-tert-butyl-1-oxa-2-azaspiro[4.5]dec-2-ene-3-carboxylic acid-3-fluoro-4-methanesulphonylaminobenzylamide]	56.5%	0.16%	–	–	98.3%	1.04%	–	–	–	–	–	–
CC(C)(C)c1ccc(NC(=O)C2CCC3(CC2)CC(c2ccccc2)=NO3)cc1 (centres unmarked) [Example 50, 3-phenyl-1-oxa-2-azaspiro[4.5]dec-2-ene-8-carboxylic acid-(4-tert-butylphenyl)amide]	64%	15%	–	–	97%	60%	0.545 µM	0.0637 µM	–	–	–	–
CC(C)(C)c1ccc(NC(=O)[C@H]2CC[C@@]3(CC2)CC(c2ccccc2)=NO3)cc1 [Example 51, 3-phenyl-1-oxa-2-azaspiro[4.5]dec-2-ene-8-carboxylic acid-cis-(4-tert-butylphenyl)amide]	–	–	–	–	–	–	–	–	25%	17%	91%	73%
COc1cccc(C2=NOC3(CCC(C(=O)Nc4ccc(C(C)(C)C)cc4)CC3)C2)c1 (centres unmarked) [Example 66, N-(4-tert-butylphenyl)-3-(3-methoxyphenyl)-1-oxa-2-azaspiro[4.5]dec-2-ene-8-carboxamide]	54%	53%	–	–	101%	87%	–	–	–	–	–	–
CCC(C)(C)C1CCC2(CC1)CC(C(=O)NCc1ccc(NS(C)(=O)=O)c(F)c1)=NO2 (centres unmarked) [Example 80, N-(3-fluoro-4-(methylsulphonamido)benzyl)-8-tert-pentyl-1-oxa-2-azaspiro[4.5]dec-2-ene-3-carboxamide]	42%	35%	2.87 µM	2.05 µM	103%	48%	1.22 µM	0.341 µM	–	–	–	–
CC(C)(C)c1ccc(NC(=O)C2CCC3(CC2)CC(C(=O)N2CCN(c4ncccc4Cl)CC2)=NO3)cc1 (centres unmarked) [Example 84, N-(4-tert-butylphenyl)-3-(4-(3-chloropyridin-2-yl)piperazin-1-carbonyl)-1-oxa-2-azaspiro[4.5]dec-2-ene-8-carboxamide]	31%	33%	–	–	103%	61%	–	–	–	–	–	–
CC(C)(C)C1CCC2(CC1)CC(C(=O)Nc1ccc(NS(C)(=O)=O)c(F)c1)=NO2 (centres unmarked) [Example 90, 8-tert-butyl-N-(3-fluoro-4-(methylsulphonamido)phenyl)-1-oxa-2-azaspiro[4.5]dec-2-ene-3-carboxamide]	34%	36%	–	–	100%	43%	–	–	–	–	–	–
((5R,8R)-8-tert-butyl-1-oxa-2-azaspiro[4.5]dec-2-en-3-yl)(4-(3-chloropyridin-2-yl)-2,6-dimethylpiperazin-1-yl)methanone [Example 58]	–	–	–	–	–	–	–	–	67%	27%	107%	46%
